Among the data in patent US8404836B2, “3-phenyl acrylic acid compound activators of type PPAR receptors and pharmaceutical/cosmetic compositions comprised thereof” (Galderma Research & Development, priority 2007, dated 2013) are melting point and Kd values, retold here.

The target of one series is T1, PPARγ (Homo sapiens, UniProt P37231).
T1 sequence (P37231 238-505 limits assumed): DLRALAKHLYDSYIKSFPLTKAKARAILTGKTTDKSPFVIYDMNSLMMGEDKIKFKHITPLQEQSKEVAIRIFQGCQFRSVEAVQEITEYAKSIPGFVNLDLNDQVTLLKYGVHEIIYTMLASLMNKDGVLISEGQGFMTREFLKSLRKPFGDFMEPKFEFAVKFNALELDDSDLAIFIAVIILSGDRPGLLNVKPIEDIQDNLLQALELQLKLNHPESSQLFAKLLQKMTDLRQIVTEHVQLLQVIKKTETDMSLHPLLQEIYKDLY
The series can be described thus: PPAR transactivation test in crossed curves (HeLN luciferase reporter), PPARγ. The series is classed as cell-based. The note with it: HeLN cells stably transfected with Gal-hPPARγ and luciferase reporter; crossed curves vs reference agonist, Schild regression; read-out: PPAR gamma Kd app. How it is done: (§1) Activation of the PPAR receptors by an agonist (activator) in HeLN cells leads to the expression of a reporter gene, luciferase, which, in the presence of a substrate, generates light. The modulation of the PPAR receptors is measured by quantifying the luminescence produced after incubation of the cells in the presence of a reference agonist. The ligands will displace the agonist from its site. The activity is measured by quantifying the light produced. This measurement makes it possible to determine the modulating activity of the compounds according to the invention by determining the constant representing the affinity of the molecule for the PPAR receptor. This value, which can fluctuate according to the basal activity and expression of the receptor, is called apparent Kd (KdApp, nM).
(§2) To determine this constant, “crossed curves” of the test product versus a reference agonist are carried out in a 96-well plate: 10 concentrations of the test product plus a 0 concentration are arranged in rows, and 7 concentrations of the agonist plus a 0 concentration are arranged in columns. This is 88 measurement points for 1 product and 1 receptor. The 8 remaining wells are used for repeatability controls.
(§3) Measurements are also carried out for the total agonist controls with the same products.
(§4) The HeLN cell lines used are stable transfectants containing the plasmids ERE-βGlob-Luc-SV-Neo (reporter gene) and PPAR (α, δ, γ) Gal-hPPAR. These cells are sown in 96-well plates at a rate of 10 000 cells per well in 100 μl of DMEM medium without phenol red and supplemented with 10% of delipidated calf serum. The plates are then incubated at 37° C., 7% CO2 for 16 hours.
(§5) The various dilutions of the test products and of the reference ligand are added at a rate of 5 μl per well. The plates are then incubated for 18 hours at 37° C., 7% CO2.
(§6) The culture medium is removed by inverting and 100 μl of a 1:1 mixture PBS/Luciferine is added to each well. After 5 minutes, the plates are read with the luminescence reader.

In the next series the target is T2, PPARδ (Homo sapiens, UniProt Q03181).
T2 sequence (Q03181 171-441 limits assumed): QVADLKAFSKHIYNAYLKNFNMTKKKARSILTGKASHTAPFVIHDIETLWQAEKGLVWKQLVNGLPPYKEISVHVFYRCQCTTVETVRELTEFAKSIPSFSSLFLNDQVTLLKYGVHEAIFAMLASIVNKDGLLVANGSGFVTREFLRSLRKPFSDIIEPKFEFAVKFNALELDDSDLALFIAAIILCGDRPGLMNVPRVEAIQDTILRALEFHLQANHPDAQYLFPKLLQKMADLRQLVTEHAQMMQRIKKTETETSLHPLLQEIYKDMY
Nature of the series: PPAR transactivation test in crossed curves (HeLN luciferase reporter), PPARδ. As to conditions: HeLN cells stably transfected with Gal-hPPARδ and luciferase reporter; crossed curves vs reference agonist, Schild regression; read-out: PPARs delta Kd app. It is filed as cell-based. How it is done: as §1, §2, §3, §4, §5, §6
(§7) These AC50 are used for calculating the Schild regression by plotting a straight line corresponding to the Schild equation (“Quantitation in receptor pharmacology” Terry P. Kenakin, Receptors and Channels, 2001, 7, 371-385) which provides the values of Kd app (in nM).

The next series concerns the target T3, PPARα (Homo sapiens, UniProt Q07869).
T3 sequence (Q07869 200-468 limits assumed): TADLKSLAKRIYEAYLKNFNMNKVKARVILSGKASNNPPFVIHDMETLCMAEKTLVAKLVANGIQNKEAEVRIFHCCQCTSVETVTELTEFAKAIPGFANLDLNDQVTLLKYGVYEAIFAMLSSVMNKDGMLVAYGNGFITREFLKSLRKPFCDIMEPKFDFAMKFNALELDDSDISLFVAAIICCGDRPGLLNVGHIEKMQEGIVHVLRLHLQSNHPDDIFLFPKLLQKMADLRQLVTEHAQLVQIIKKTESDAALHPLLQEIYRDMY
The series can be described thus: PPAR transactivation test in crossed curves (HeLN luciferase reporter), PPARα. It is filed as cell-based. The note with it: HeLN cells stably transfected with Gal-hPPARα and luciferase reporter; crossed curves vs reference agonist, Schild regression; read-out: PPAR alpha Kd app. On the procedure:
as §1, §2, §3, §4, §5, §6, §7
(A reporter such as luciferase makes a cellular process visible.)

Each structure is given as a SMILES string.

What is called melting point is the temperature, or range, at which the solid turns liquid. With `CCCCS(=O)(=O)Oc1ccc(CCOc2ccc(/C=C(\OCC)C(=O)O)cc2OC)cc1` [Example 1, (Z)-3-(4-{2-[4-(butane-1-sulfonyloxy)-phenyl]-ethoxy}-3-methoxy-phenyl)-2-ethoxy-acrylic acid], the melting point was found to be 94 °C. Moreover, the Kd on PPARγ amounted to 0.008 µM.
With `CCCCOc1cc(/C=C(\OCC)C(=O)O)ccc1CCCc1ccc(OS(=O)(=O)CCCC)c(OC)c1` [Example 3, (Z)-3-(4-{3-[4-(butane-1-sulfonyloxy)-3-methoxy-phenyl]-propyl}-3-butoxy-phenyl)-2-ethoxy-acrylic acid], the Kd at PPARδ worked out at 0.25 µM; on PPARα, 0.06 µM; on PPARγ it was 0.015 µM.
In the case of `CCCCOc1cc(/C=C(\OCC)C(=O)O)ccc1OCCc1ccc(OS(=O)(=O)CCCC)cc1` [Example 6, (Z)-3-(4-{2-[4-(butane-1-sulfonyloxy)-phenyl]-ethoxy}-3-butoxy-phenyl)-2-ethoxy-acrylic acid], the Kd at PPARα turned out to be 0.12 µM; at PPARγ, 0.002 µM.
On to `CCCCOc1cc(/C=C(\OCC)C(=O)O)ccc1OCCc1ccc(OS(C)(=O)=O)c(OC)c1` [Example 7, (Z)-3-{3-butoxy-4-[2-(4-methanesulfonyloxy-3-methoxy-phenyl)-ethoxy]-phenyl}-2-ethoxy-acrylic acid], for which the melting point came to 97 °C. For the same compound, the Kd at PPARα was found to be 0.25 µM. Also, on PPARγ, the Kd was 0.015 µM.
With `CCCCOc1cc(/C=C(\OCC)C(=O)O)ccc1OCCc1ccc(OS(=O)(=O)CCCC)c(OC)c1` [Example 8, (Z)-3-(4-{2-[4-(butane-1-sulfonyloxy)-3-methoxy-phenyl]-ethoxy}-3-butoxy-phenyl)-2-ethoxy-acrylic acid], the results for the Kd on PPARδ, at PPARα and at PPARγ were 2 µM, 0.12 µM and 0.015 µM, respectively.
`CCCCOc1cc(/C=C(\OCC)C(=O)O)ccc1OCCc1ccc(OS(=O)(=O)CCCC)cc1OC` [Example 9, (Z)-3-(4-{2-[4-(butane-1-sulfonyloxy)-2-methoxy-phenyl]-ethoxy}-3-butoxy-phenyl)-2-ethoxy-acrylic acid]: the Kd at PPARα came to 2 µM; at PPARγ it was 0.008 µM.
Regarding `CCCCOc1cc(/C=C(\OCC)C(=O)O)ccc1OCCc1ccc(OS(C)(=O)=O)cc1OC` [Example 10, (Z)-3-{3-butoxy-4-[2-(4-methanesulfonyloxy-2-methoxy-phenyl)-ethoxy]-phenyl}-2-ethoxy-acrylic acid], the melting point came out at 112 °C.
On the same count and under the same terms, then `CCCCOc1cc(/C=C(\OCC)C(=O)O)ccc1OCCc1ccc(OCC)c(F)c1` [Example 11, (Z)-3-{3-butoxy-4-[2-(4-ethoxy-3-fluoro-phenyl)-ethoxy]-phenyl}-2-ethoxy-acrylic acid], with 119 °C.
The compound `CCCCCOc1ccc(CCOc2ccc(/C=C(\OCC)C(=O)O)cc2OCCCC)cc1F` [Example 12, (Z)-3-{3-butoxy-4-[2-(3-fluoro-4-pentyloxy-phenyl)-ethoxy]-phenyl}-2-ethoxy-acrylic acid] showed a melting point of 102 °C.
Compound `CCCCOc1cc(/C=C(\OCC)C(=O)O)ccc1OCCc1ccc(OS(=O)(=O)CCCC)c(F)c1` [Example 13, (Z)-3-(4-{2-[4-(butane-1-sulfonyloxy)-3-fluoro-phenyl]-ethoxy}-3-butoxy-phenyl)-2-ethoxy-acrylic acid] had a melting point of 99 °C. Also, the Kd at PPARδ turned out to be 2 µM. The Kd at PPARα came out at 0.25 µM. The Kd on PPARγ turned out to be 0.008 µM.
`CCCCCOc1ccc(CCOc2ccc(/C=C(\OCC)C(=O)O)cc2OCCCC)cc1Cl` [Example 15, (Z)-3-{3-butoxy-4-[2-(3-chloro-4-pentyloxy-phenyl)-ethoxy]-phenyl}-2-ethoxy-acrylic acid]: the melting point worked out at 95 °C.
On the same count and under the same terms, the figure for `CCCCOc1cc(/C=C(\OCC)C(=O)O)ccc1OCCc1ccc(OS(C)(=O)=O)c(Cl)c1` [Example 16, (Z)-3-{3-butoxy-4-[2-(3-chloro-4-methanesulfonyloxy-phenyl)-ethoxy]-phenyl}-2-ethoxy-acrylic acid] is 113 °C.
Consider `CCCCOc1cc(/C=C(\OCC)C(=O)O)ccc1OCCc1ccc(OS(=O)(=O)CCCC)c(Cl)c1` [Example 17, (Z)-3-(4-{2-[4-(butane-1-sulfonyloxy)-3-chloro-phenyl]-ethoxy}-3-butoxy-phenyl)-2-ethoxy-acrylic acid], for which the melting point was determined as 80 °C. Moreover, the Kd at PPARδ stood at 1 µM. On PPARα, the Kd came to 0.06 µM. For the same compound, the Kd at PPARγ was 0.008 µM.
Turning to `CCO/C(=C\c1ccc(OCCc2ccc(OCC)cc2)c(OC)c1)C(=O)O` [Example 19, (Z)-2-ethoxy-3-{4-[2-(4-ethoxy-phenyl)-ethoxy]-3-methoxy-phenyl}-acrylic acid], the melting point was 121 °C.
`CCCCOc1cc(/C=C(\OCC)C(=O)O)ccc1OCCc1ccc(NS(=O)(=O)CCCC)cc1` [Example 22, (Z)-3-(4-{2-[4-(butane-1-sulfonylamino)-phenyl]-ethoxy}-3-butoxy-phenyl)-2-ethoxy-acrylic acid] yielded a melting point of 164 °C.
On the same count and under the same terms, then `CCCCOc1cc(/C=C(\OCC)C(=O)O)ccc1OCCc1ccc(N(C)S(C)(=O)=O)cc1` [Example 23, (Z)-3-(3-butoxy-4-{2-[4-(methanesulfonyl-methyl-amino)-phenyl]-ethoxy}-phenyl)-2-ethoxy-acrylic acid], with 112 °C.
